# ChEMBL document CHEMBL1125964, “Synthesis and biological activivity of juvenele hormone analogues (JHA) for Trypanosoma cruzi” (1991)
# What was measured:
# Type in all cases: functional
# Trypanosoma cruzi [1] = experiment: Compound was evaluated for its percent inhibition of growth of Trypanosoma cruzi at 100 uM/L
# Trypanosoma cruzi [2] = experiment: Compound was evaluated for its percent inhibition of growth of Trypanosoma cruzi at of 50 uM/L
# Trypanosoma cruzi [3] = experiment: Compound was evaluated for its percent inhibition of thymidine incorporation in Trypanosoma cruzi without killing the cells at 25 degree Celsius and 100 uM/L
# Trypanosoma cruzi [4] = experiment: Compound was evaluated for its percent inhibition of thymidine incorporation in Trypanosoma cruzi without killing the cells at 25 degree Celsius and 50 uM/L
# Trypanosoma cruzi [5] = experiment: Compound was evaluated for its percent inhibition for thymidine incorporation in Trypanosoma cruzi without killing the cells at 25 degree Celsius and 17 uM/L
SMILES,inhibition at 100 µM (Trypanosoma cruzi [1]),inhibition at 50 µM (Trypanosoma cruzi [2]),Inhibition (Trypanosoma cruzi [3]),Inhibition (Trypanosoma cruzi [4]),Inhibition (Trypanosoma cruzi [5])
COC(=O)OCCC/C=C(\C)CCC=C(C)C,56%,41.3%,95.3%,66.3%,–
C/C=C\CC/C(C)=C/CCC(C)OC(=O)OCC(C)C (stereo unspecified),75.4%,47.6%,89.6%,70.1%,–
COC(=O)OC/C=C(\C)CC/C=C(\C)CCC1OC1(C)C (stereo unspecified),62.8%,44.8%,46.3%,25.7%,–
CC(C)=CCC/C(C)=C/CCCOC(=O)OCC(C)C,94%,57.3%,100.1%,88.4%,50.6%
CC/C(C)=C\CC/C(C)=C/CCC(C)OC(=O)OCC(C)C (stereo unspecified),68%,56.6%,70.8%,62.8%,–
CCSC(=O)OC(C)CC/C=C(\C)CC/C=C(/C)CC (stereo unspecified),79.4%,50.7%,75.2%,65.3%,–
CC(C)=CCC/C(C)=C/CCC(C)OC(=O)OCC(C)C (stereo unspecified),89.6%,70.8%,95.8%,73.3%,–
COC(=O)OC(C)CC/C=C(\C)CCC=C(C)C (stereo unspecified),97.5%,51%,91.6%,75.6%,–
CC(C)(C)OC(=O)CC(O)COc1ccc(Oc2ccccc2)cc1 (stereo unspecified),98.8%,67.2%,93.5%,70.6%,–
C=CCOc1ccc(Oc2ccccc2)cc1,95.4%,80.8%,83.9%,60.9%,–
COC(C)(C)CCCC(C)C/C=C/C(C)=C/C(=O)OC(C)C (stereo unspecified),92.5%,60%,86.5%,70.5%,–
C/C(=C\CCC(C)OC(=O)OCC(C)C)CCC1OC1(C)C (stereo unspecified),68%,33.4%,70%,50.8%,–
CCSC(=O)OC/C=C(\C)CC/C=C(\C)CCC=C(C)C,94.2%,69.3%,72.6%,57.9%,–
c1ccc(Oc2ccc(OCCOC3CCCCO3)cc2)cc1 (stereo unspecified),90.6%,57%,86.2%,40.8%,–
CCSC(=O)OC/C=C(\C)CC/C=C(\C)CCC1OC1(C)C (stereo unspecified),99%,90.7%,95.6%,80.7%,–
